# According to US20230242494A1, “MALONITRILE DERIVATIVES” (Hoffmann-La Roche Inc., priority 2020, published 2023):
# Target: T1, human cGAS (residues 161-522) (Homo sapiens, UniProt Q8N884)
# T1 construct: human cGAS (residues 161-522); made in house
# Assay: cGAS Activity Assay—Malachite Green
# Type: biochemical
# Details: recombinant purified human cGAS 25 nM; 80 μM ATP, 80 μM GTP, 100 nM ISD; 4 hour at RT; phosphate detection by Malachite Green
# How it was run: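 Human cGAS (161-522, 25 nM) in 20 mM TRIS pH 7.5, 5 mM MgCl2, 0.01% BSA with 80 μM ATP, 80 μM GTP and 100 nM ISD DNA, 4 h at RT. Pyrophosphate converted by PPase, phosphate read with Malachite Green at 620 nm; IC50 from 4-parameter fit of 16-point series.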
# T1 sequence (Q8N884 161-522): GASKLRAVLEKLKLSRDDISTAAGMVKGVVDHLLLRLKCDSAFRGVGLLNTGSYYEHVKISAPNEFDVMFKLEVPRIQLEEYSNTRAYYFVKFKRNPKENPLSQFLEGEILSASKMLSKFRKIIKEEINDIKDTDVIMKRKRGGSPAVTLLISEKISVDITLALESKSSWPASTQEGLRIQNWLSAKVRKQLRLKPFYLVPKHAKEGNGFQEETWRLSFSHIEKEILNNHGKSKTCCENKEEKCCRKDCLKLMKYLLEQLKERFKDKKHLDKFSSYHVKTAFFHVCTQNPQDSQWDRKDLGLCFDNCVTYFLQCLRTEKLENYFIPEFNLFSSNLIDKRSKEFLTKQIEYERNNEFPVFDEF
row,SMILES,IC50
1,"Cc1oncc1/C(O)=C(\C#N)C(=O)Nc1ncc(C(F)(F)F)cc1Cl [Example 84, (Z)-N-(3-chloro-5-(trifluoromethyl)pyridin-2-yl)-2-cyano-3-hydroxy-3-(5-methylisoxazol-4-yl)acrylamide]",280 nM
2,"Cc1oncc1/C(O)=C(\C#N)C(=O)Nc1ncc(OCC2CCCC2)cn1 [Example 85, (Z)-2-cyano-N-(5-(cyclopentylmethoxy)pyrimidin-2-yl)-3-hydroxy-3-(5-methylisoxazol-4-yl)acrylamide]",160 nM
3,"Cc1oncc1/C(O)=C(\C#N)C(=O)Nc1ncc(C#Cc2ccccc2)cn1 [Example 86, (Z)-2-cyano-3-hydroxy-3-(5-methylisoxazol-4-yl)-N-(5-(phenylethynyl)pyrimidin-2-yl)acrylamide]",480 nM
4,"Cc1oncc1/C(O)=C(\C#N)C(=O)Nc1nccc(CCc2ccccc2)n1 [Example 87, (Z)-2-cyano-3-hydroxy-3-(5-methylisoxazol-4-yl)-N-(4-phenethylpyrimidin-2-yl)acrylamide]",240 nM
5,"Cc1oncc1/C(O)=C(\C#N)C(=O)Nc1ncc(CC2CCCCC2)cn1 [Example 88, (Z)-2-cyano-N-(5-(cyclohexylmethyl)pyrimidin-2-yl)-3-hydroxy-3-(5-methylisoxazol-4-yl)acrylamide]",160 nM
6,"COCCOc1cnc(NC(=O)/C(C#N)=C(\O)c2cnoc2C)nc1 [Example 89, (Z)-2-cyano-3-hydroxy-N-(5-(2-methoxyethoxy)pyrimidin-2-yl)-3-(5-methylisoxazol-4-yl)acrylamide]",80 nM
7,"Cc1oncc1/C(O)=C(\C#N)C(=O)Nc1ccc([S+]([O-])c2ccccc2)cn1 (stereo not shown) [Example 90, (Z)-2-cyano-3-hydroxy-3-(5-methylisoxazol-4-yl)-N-(5-(phenylsulfinyl)pyridin-2-yl)acrylamide]",130 nM
8,"Cc1oncc1/C(O)=C(\C#N)C(=O)Nc1ccc(S(C)(=O)=O)cn1 [Example 91, (Z)-2-cyano-3-hydroxy-3-(5-methylisoxazol-4-yl)-N-(5-(methylsulfonyl)pyridin-2-yl)acrylamide]",100 nM
9,Cc1oncc1/C(O)=C(\C#N)C(=O)Nc1ncc(C(F)(F)F)cc1F [Example 92],250 nM
10,"Cc1oncc1/C(O)=C(\C#N)C(=O)Nc1ccc(S(=O)(=O)NC(C)(C)C)cn1 [Example 93, (Z)-N-(5-(N-(tert-butyl)sulfamoyl)pyridin-2-yl)-2-cyano-3-hydroxy-3-(5-methylisoxazol-4-yl)acrylamide]",140 nM
11,"Cc1oncc1/C(O)=C(\C#N)C(=O)Nc1ncc(C(F)(F)F)cn1 [Example 94, (Z)-2-cyano-3-hydroxy-3-(5-methylisoxazol-4-yl)-N-(5-(trifluoromethyl)pyrimidin-2-yl)acrylamide]",90 nM
12,"Cc1oncc1/C(O)=C(\C#N)C(=O)Nc1ccc(S(=O)(=O)c2ccccc2)cn1 [Example 95, (Z)-2-cyano-3-hydroxy-3-(5-methylisoxazol-4-yl)-N-(5-(phenylsulfonyl)pyridin-2-yl)acrylamide]",100 nM
13,"Cc1oncc1/C(O)=C(\C#N)C(=O)Nc1ncc(S(=O)(=O)N(C)C)cn1 [Example 96, (Z)-2-cyano-N-(5-(N,N-dimethylsulfamoyl)pyrimidin-2-yl)-3-hydroxy-3-(5-methylisoxazol-4-yl)acrylamide]",70 nM
14,"Cc1oncc1/C(O)=C(\C#N)C(=O)Nc1ncc(Sc2ccccc2)cn1 [Example 97, (Z)-2-cyano-3-hydroxy-3-(5-methylisoxazol-4-yl)-N-(5-phenylsulfanylpyrimidin-2-yl)prop-2-enamide]",210 nM
15,"CCOc1cnc(NC(=O)/C(C#N)=C(\O)c2cnoc2C)nc1 [Example 98, (Z)-2-cyano-N-(5-ethoxypyrimidin-2-yl)-3-hydroxy-3-(5-methylisoxazol-4-yl)acrylamide]",80 nM
16,"Cc1oncc1/C(O)=C(\C#N)C(=O)Nc1ncc(C(=O)N(C)c2ccccc2)cn1 [Example 99, 2-[[(Z)-2-cyano-3-hydroxy-3-(5-methylisoxazol-4-yl)prop-2-enoyl]amino]-N-methyl-N-phenyl-pyrimidine-5-carboxamide]",90 nM
